Experimental data from US6540988B1, “Method of reducing or preventing malodour” (Quest International B.V., priority 1998, dated 2003).

System: bacterial production of odoriferous steroids
Assay: sub-lethal inhibition of the bacterial production of odoriferous steroids
Assay type: cell-based

CC(C)(C)NC(=O)[C@H]1CC[C@H]2[C@@H]3CC[C@H]4NC(=O)C=C[C@]4(C)[C@H]3CC[C@]12C [finasteride]
sub-lethally inhibiting the bacterial production of odoriferous steroids: incapable of sub-lethally inhibiting
